Test results as given in PMC9376960, “Ruthenium(II)–Tris-pyrazolylmethane Complexes Inhibit Cancer Cell Growth by Disrupting Mitochondrial Calcium Homeostasis” (Journal of Medicinal Chemistry, 2022).

Assays:
HCT116 (3D) = assay: Cytotoxicity in 3D spheroids (colonospheres), Cell Titer-Glo 3D; type: cell-based, human; conditions: for effect on the morphology of 3D spheroids: 20 µM, 72 h, bright-field images; for IC50: Cell Titer-Glo, spheroids, 72 h of treatment
Description: A spontaneous spheroid formation was used to generate colonospheres derived from the HCT116 cell line. The HCT116 cells were seeded on 96-well ultralow attachment plates (1400 cells/well) and cultivated in a tumor sphere-forming medium (DMEM/F12, supplemented with B27 (Invitrogen), BSA, bFGF (10 ng mL^–1), and EGF (20 ng mL^–1)) for 4 days. After the incubation period, colonospheres were treated with Ru complexes for another 3 days. The viability of colonospheres was determined by the Cell Titer-Glo 3D cell viability assay (Promega) according to the manufacturer’s instructions. The reported IC50 values are the average of three independent experiments, each consisting of three replicates per concentration level. Bright-field images of the spheroids were taken as well to determine the effect on the morphology of the spheroids.

CHO-K1 = assay: MTT assay, wild-type cells; type: cell-based, Chinese hamster; conditions: 72 h
Source text: (§1) The human cervical carcinoma HeLa cells and human colorectal carcinoma cells HCT116 were kindly supplied by Professor B. Keppler, University of Vienna (Austria). Human rhabdomyosarcoma RD cells were purchased from the American Type Culture Collection (ATCC, Manassas, VA). Human breast cancer MCF-7 cells, human skin melanoma 518A2 cells, and human MRC5pd30 cells derived from normal lung tissue were purchased from the European Collection of Authenticated Cell Cultures (ECACC) (Salisbury, U.K.). Chinese hamster ovary CHO-K1 cell line (wild type) and its derivative MMC-2 carrying the ERCC3/XPB mutation (NER-deficient) cell line were kindly supplied by Dr. […], Cancer Research Institute, Slovak Academy of Sciences, Bratislava (Slovakia). In vitro antiproliferative activity of Ru complexes was determined by the MTT or, alternatively, SRB assay as already described,[84] after 72 h of incubation of cells with various concentrations of the Ru complex. The reported IC50 values are an average of three independent experiments, each consisting of three replicates per concentration.

HCT116 = assay: SRB antiproliferative assay; type: cell-based, human; conditions: SRB test, 72 h; mean ± SD
Description: In vitro antiproliferative activity of Ru complexes was determined by the MTT or, alternatively, SRB assay as already described,[84] after 72 h of incubation of cells with various concentrations of the Ru complex. The reported IC50 values are an average of three independent experiments, each consisting of three replicates per concentration.

[1] = Stability and speciation in deuterated cell culture medium (DMEM-d/DMSO-d6, NMR); type: physicochemical; conditions: for residual complex % in DMEM-d/DMSO-d6: after 24 h at 37 °C; for Aquo species % in DMEM-d/DMSO-d6 at t0 / Aquo species % in DMEM-d/DMSO-d6 after 24h: DMSO-d6-DMEM-d 1:4 v/v; for Aquo species % in DMEM-d/DMSO-d6 after 24h: 37 °C
Description: Powdered DMEM cell culture medium (1000 mg/L glucose and L-glutamine, without sodium bicarbonate and phenol red; D2902; Sigma-Aldrich) was dissolved in D2O (10 mg/mL), according to the manufacturer’s instructions. The solution of deuterated cell culture medium (“DMEM-d”) was treated with Me2SO2 (6.6 × 10^–3 M) and NaH2PO4/Na2HPO4 (0.10 M, pD = 7.5)[120]−[122] and then stored at 4 °C under N2. The selected ruthenium compound (2–3 mg) was dissolved in DMSO-d6 (0.14 mL; 0.18 mL for 4) and then diluted with DMEM-d up to 0.75 mL total volume (cRu ca. 4 × 10^–3 M). The mixture was stirred for 30 min, then filtered over celite, and transferred into an NMR tube. The resulting yellow solution was analyzed by ^1H and ^31P NMR (delay time = 3 s; number of scans = 20) and then heated at 37 °C for 24 h. After cooling to room temperature, NMR analyses were repeated. Compound 1 was instead dissolved in a DMSO-d6/DMEM-d 4:1 v/v solution (0.7 mL; [Ru] = approx. 3 × 10^–3 M) containing Me2SO2 as the internal standard.[115] The percentage of the starting complex + related aquo complex was calculated by the relative integral with respect to Me2SO2 (δ/ppm = 3.16 in DMSO-d6/DMEM-d 1:4 and 1:3 v/v; δ/ppm = 2.95 in DMSO-d6/DMEM-d 4:1 v/v).

HCT116 cells [2] = assay: Calcium flux, Rhod-2 and Fluo-4 probes; type: cell-based, human; conditions: for effect on Ca2+ flux into the mitochondria induced by ionomycin: 2.5 h pretreatment, 10 μM (1 also 2.5, 5 μM), Rhod-2, 5 μM ionomycin
Description: The distribution of calcium ions in cytosol and mitochondria was studied using calcium-sensitive fluorescent probes. HCT116 cells were seeded at a density of 2 × 10^5 cells/well on six-well plates. After overnight cultivation, the cells were treated with Ru complexes at indicated concentrations for 2.5 h. The culture medium was then replaced with either 5 μM Rhod-2 or Fluo-4 in PBS supplemented with 2 mM CaCl2 and incubated for 30 min at 37 °C. At last, cells were harvested and suspended in PBS (with 2 mM CaCl2) or in PBS (with 2 mM CaCl2) supplemented with ionomycin (5 μM) for 30 min at 37 °C and analyzed using a BD FACSverse flow cytometer.

MMC-2 = assay: MTT assay, NER-deficient cells; type: cell-based, Chinese hamster; conditions: 72 h
Source text: as §1

HCT116 cells [3] = assay: Confocal microscopy imaging of actin and tubulin; type: cell-based, human; conditions: 24 h at IC50
Description: HCT116 cells were seeded on coverslips precoated with 0.1% gelatin in six-well culture plates at a density of 1 × 10^5 cells/well. […] Following the treatment, the cells were washed with PBS, fixed with 4% p-formaldehyde, washed, permeabilized with 0.1% Triton X-100, and blocked. Samples for actin staining were blocked with 1.5% BSA for 1 h and then stained with Alexa Fluor 488-conjugated Phalloidin (Thermo Fisher Scientific, 1:50 dilution, 20 min). Samples for tubulin staining were blocked with 5% goat serum for 1 h and incubated with primary antibody (anti-α-tubulin, Abcam, 1:200 dilution, 1 h) and Alexa Fluor-conjugated secondary antibody (goat antirabbit, Abcam, 1:500 dilution, 1 h). Both groups of samples were mounted with ProLong Diamond Antifade Mountant with DAPI (Invitrogen). Cells were visualized on a confocal microscope Leica TCS SP8 SMD.

[4] = DMSO-d6/DMEM-d 1:4 v/v, sum of chloro and aquo complexes

| Substance | IC50 (HCT116) | residual complex % in DMEM-d/DMSO-d6 ([1]; compound 1: DMSO-d6/DMEM-d 4:1 v/v) | Aquo species % in DMEM-d/DMSO-d6 at t0 [1] | Aquo species % in DMEM-d/DMSO-d6 after 24h [1] | residual complex % in DMEM-d/DMSO-d6 [1, 4] | effect on the morphology of 3D spheroids (HCT116 (3D)) | fold more effective than cisplatin (HCT116 (3D); 3D spheroids HCT116) | IC50 (HCT116 (3D)) | IC50 (CHO-K1) | increase in the concentration of Ca2+ in the cytoplasm (HCT116 cells [2]; 2.5 h, 10 μM, Fluo-4) | effect on Ca2+ flux into the mitochondria induced by ionomycin (HCT116 cells [2]) | IC50 (MMC-2) | effect on structure, shape, and layout of tubulin and actin networks (HCT116 cells [3]) |
| --- | --- | --- | --- | --- | --- | --- | --- | --- | --- | --- | --- | --- | --- |
| [RuCl(κ^3-tpm)(PPh3)2]Cl [compound 1] | 0.45 ± 0.05 µM | 88% | – | – | – | almost completely disintegrated | approximately 18 fold | 2.5 ± 0.6 µM | 6.3 ± 0.2 µM | most prominent | reduced Ca^2+ flux into the mitochondria | 7.7 ± 0.2 µM | did not significantly affect |
| [RuCl(κ^3-tpm)(PPh3)(CNCy)]Cl [compound 8] | 5.2 ± 0.5 µM | – | 0% | 16% | 98% | heterogeneous morphology with several dissociated cell clumps | – | 12.1 ± 2.7 µM | 16 ± 4 µM | – | less pronounced | 16 ± 3 µM | did not significantly affect |

The next lines start with results.

| IC50 (HCT116) | residual complex % in DMEM-d/DMSO-d6 ([1]; compound 1: DMSO-d6/DMEM-d 4:1 v/v) | Aquo species % in DMEM-d/DMSO-d6 at t0 [1] | Aquo species % in DMEM-d/DMSO-d6 after 24h [1] | residual complex % in DMEM-d/DMSO-d6 [1, 4] | Substance | effect on the morphology of 3D spheroids (HCT116 (3D)) | fold more effective than cisplatin (HCT116 (3D); 3D spheroids HCT116) | IC50 (HCT116 (3D)) | IC50 (CHO-K1) | increase in the concentration of Ca2+ in the cytoplasm (HCT116 cells [2]; 2.5 h, 10 μM, Fluo-4) | effect on Ca2+ flux into the mitochondria induced by ionomycin (HCT116 cells [2]) | IC50 (MMC-2) | effect on structure, shape, and layout of tubulin and actin networks (HCT116 cells [3]) |
| --- | --- | --- | --- | --- | --- | --- | --- | --- | --- | --- | --- | --- | --- |
| 29 ± 3 µM | – | 0% | 17% | 97% | [RuCl(κ^3-tpm)(PPh3){CNCH2P(O)(OEt2)2}]Cl [compound 9] | – | – | – | – | – | insignificant | – | – |
| 16 ± 2 µM | – | 0% | 66% | 100% | [RuCl(κ^3-tpm)(PPh3){NCHN(Me)(CH)2}]Cl [compound 3] | – | – | – | – | – | – | – | – |
| 5.8 ± 0.6 µM | – | 0% | 16% | 95% | [RuCl(κ^3-tpm)(PPh3){P(OMe)3}]Cl [compound 7] | heterogeneous morphology with several dissociated cell clumps | – | 12.2 ± 2.5 µM | 25.6 ± 0.5 µM | – | less pronounced | 33 ± 2 µM | did not significantly affect |
